From patent US9573899B2, “USP7 inhibitor compounds and methods of use” (Genentech, Inc., priority 2015, dated 2017)

What follows are compounds tested against T1, USP7, full-length, native C-Terminus (Homo sapiens, UniProt Q93009) (assay: Biochemical USP7 assay with Ubiquitin-Rho110 substrate, compounds pre-incubated with USP7 (USP7_Ub-Rho preInc)). Conditions: compounds pre-mixed with USP7, 1 hour incubation, before substrate; read-out: USP7 Ub-Rho preInc (IC50).
T1 construct: USP7, full-length, native C-Terminus, 0.2 nM
T1 sequence (Q93009 whole entry): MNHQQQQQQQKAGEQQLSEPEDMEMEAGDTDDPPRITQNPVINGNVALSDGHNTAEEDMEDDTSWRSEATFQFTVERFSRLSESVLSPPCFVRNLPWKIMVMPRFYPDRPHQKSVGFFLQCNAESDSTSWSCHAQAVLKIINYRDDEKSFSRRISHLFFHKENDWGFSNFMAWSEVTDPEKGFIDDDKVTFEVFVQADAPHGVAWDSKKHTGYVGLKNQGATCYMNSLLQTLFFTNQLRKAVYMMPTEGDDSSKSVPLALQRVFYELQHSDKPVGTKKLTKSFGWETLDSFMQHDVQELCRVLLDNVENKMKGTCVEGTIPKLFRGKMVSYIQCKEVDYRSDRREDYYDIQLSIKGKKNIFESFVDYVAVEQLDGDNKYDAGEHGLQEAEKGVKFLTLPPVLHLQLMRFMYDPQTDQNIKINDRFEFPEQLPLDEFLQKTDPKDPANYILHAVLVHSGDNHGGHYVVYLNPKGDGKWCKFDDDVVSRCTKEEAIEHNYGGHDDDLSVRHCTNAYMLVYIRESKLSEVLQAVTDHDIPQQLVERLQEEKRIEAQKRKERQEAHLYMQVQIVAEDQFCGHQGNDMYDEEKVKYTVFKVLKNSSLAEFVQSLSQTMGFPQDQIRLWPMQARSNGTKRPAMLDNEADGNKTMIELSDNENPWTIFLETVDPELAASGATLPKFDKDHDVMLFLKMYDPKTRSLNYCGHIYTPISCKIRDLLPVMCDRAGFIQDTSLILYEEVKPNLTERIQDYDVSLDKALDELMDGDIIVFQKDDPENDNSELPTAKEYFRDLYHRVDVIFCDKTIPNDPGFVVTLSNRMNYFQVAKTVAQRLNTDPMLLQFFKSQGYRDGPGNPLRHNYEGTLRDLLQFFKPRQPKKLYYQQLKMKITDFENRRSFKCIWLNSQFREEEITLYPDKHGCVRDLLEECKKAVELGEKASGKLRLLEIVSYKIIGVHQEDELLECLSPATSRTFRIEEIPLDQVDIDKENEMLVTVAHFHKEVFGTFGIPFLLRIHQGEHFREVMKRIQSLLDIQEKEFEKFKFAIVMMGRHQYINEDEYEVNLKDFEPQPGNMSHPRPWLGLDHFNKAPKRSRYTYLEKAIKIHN
Protocol: Biochemical USP7 assays using Ubiquitin-Rho110 as a substrate: The final assay conditions were as follows: The Reaction Buffer consisted of: 50 mM Tris (pH 7.5), 0.01% (v/v) Triton X-100, 2.5 mM Dithiothreitol, 0.1% (w/v) bovine gamma globulin (Sigma cat #G5009-25G); USP7, full-length, native C-Terminus, 0.2 nM; the substrate, Ubiquitin-Rho110 (Boston Biochem cat #U-555), 1 uM. Reactions were carried out for 1 hour at room temperature, in black 20 μL volume polystyrene ProxiPlate 384 F Plus® (PerkinElmer cat #6008260).
Test compounds, including a control USP7 inhibitor (Ub-aldehyde, Boston Biochem cat #U-201) were serially diluted in DMSO, in 384 well clear V-bottom polypropylene plates (Greiner cat #781280). Compounds in DMSO were diluted 10-fold into Reaction Buffer, to achieve 3-fold the final desired concentration. The substrate, Ubiquitin-Rho110 (Boston Biochem cat #U-555), was prepared at 3 μM (3-fold the final concentration) and 5 ul was dispensed into the reaction plate. 5 ul of the compounds (diluted in Reaction Buffer at 3-fold the final concentration) were transferred to the reaction plate. 5 ul of 0.6 nM USP7 (diluted in Reaction Buffer at 3-fold the final concentration) was transferred to the reaction plate to initiate the reaction. After 1 hour incubation at room temperature the reaction was quenched by the addition of 5 ul of 400 mM acetic acid. The enzymatic product was measured by quantifying the fluorescence signal of cleaved Rhodamine-110 using excitation at 485 nm and emission at 535 nm. When pre-incubation of USP7 with compounds was required, the order of addition of reagents was modified to pre-mix the compounds with USP7 (with a 1 hour incubation period), prior to the addition of the substrate and the initiation of the reaction period. Percentage inhibition values were calculated relative to a no enzyme control and a uninhibited enzyme control. Curve fitting and IC50 calculations were carried out using Genedata Screener software.

CCCNc1ncc(-c2ccc(O)cc2)c(CC)c1-c1ccc(O)cc1 [Compound 15, 4-[4-ethyl-5-(4-hydroxyphenyl)-6-(propylamino)-3-pyridyl]phenol] and CCc1c(-c2ccc(O)cc2)cnc(NC)c1-c1ccc(O)cc1 [Compound 43, 4-[4-ethyl-5-(4-hydroxyphenyl)-6-(methylamino)-3-pyridyl]phenol] are within 1.5-fold of each other in IC50: 10.1 µM for the first, 6.8 µM for the second.

Compared with CCc1c(-c2ccc(O)cc2)cnc(N)c1-c1ccc(F)c(F)c1 [Compound 18, 4-[6-amino-5-(3,4-difluorophenyl)-4-ethyl-3-pyridyl]phenol], CCc1c(-c2ccc(F)c(F)c2)cnc(N)c1-c1ccc(O)cc1 [Compound 48, 4-[2-amino-5-(3,4-difluorophenyl)-4-ethyl-3-pyridyl]phenol] is lower in IC50: > 20 µM for the first, 11.6 µM for the second.

CCc1c(-c2cccc(OC)c2)cnc(N)c1-c1ccc(O)cc1 [Compound 52, 4-[2-amino-4-ethyl-5-(3-methoxyphenyl)-3-pyridyl]phenol] and CCc1c(-c2cccc(C)c2)cnc(N)c1-c1ccc(O)cc1 [Compound 57, 4-[2-amino-4-ethyl-5-(m-tolyl)-3-pyridyl]phenol] cannot be ordered by IC50: 50.1 µM for the first, > 20 µM for the second.

CCc1c(-c2ccc(F)c(C)c2)cnc(N)c1-c1ccc(O)cc1 [Compound 79, 4-[2-amino-4-ethyl-5-(4-fluoro-3-methyl-phenyl)-3-pyridyl]phenol] and CCc1c(-c2ccc(Cl)c(C)c2)cnc(N)c1-c1ccc(O)cc1 [Compound 44, 4-[2-amino-5-(4-chloro-3-methyl-phenyl)-4-ethyl-3-pyridyl]phenol] cannot be ordered by IC50: > 20 µM for the first, > 20 µM for the second.

CCc1c(-c2ccccc2)cnc(N)c1-c1ccc(O)cc1 [Compound 37, 4-(2-amino-4-ethyl-5-phenyl-3-pyridyl)phenol] and CCc1c(-c2ccccc2Cl)cnc(N)c1-c1ccc(O)cc1 [Compound 78, 4-[2-amino-5-(2-chlorophenyl)-4-ethyl-3-pyridyl]phenol] are within 1.5-fold of each other in IC50: 17.8 µM for the first, 15.7 µM for the second.

CCc1c(-c2ccc(O)cc2)cnc(N)c1-c1cccc(NC(=O)OC(C)(C)C)c1 [Compound 31, tert-butyl N-[3-[2-amino-4-ethyl-5-(4-hydroxyphenyl)-3-pyridyl]phenyl]carbamate] and CCc1c(-c2cccc(C(=O)NC(C)C)c2)cnc(N)c1-c1ccc(O)cc1 [Compound 69, 3-[6-amino-4-ethyl-5-(4-hydroxyphenyl)-3-pyridyl]-N-isopropyl-benzamide] cannot be ordered by IC50: > 20 µM for the first, > 63.3 µM for the second.

Compared with CCc1c(-c2cncc(C#N)c2)cnc(N)c1-c1ccc(O)cc1 [Compound 63, 5-[6-amino-4-ethyl-5-(4-hydroxyphenyl)-3-pyridyl]pyridine-3-carbonitrile], CCc1c(-c2cccc(C#N)c2)cnc(N)c1-c1ccc(O)cc1 [Compound 49, 3-[6-amino-4-ethyl-5-(4-hydroxyphenyl)-3-pyridyl]benzonitrile] is 2.2-fold lower in IC50: 11.7 µM for the first, 5.4 µM for the second. The second is the more potent here.

Compared with CCc1c(-c2ccc(NC(C)=O)nc2)cnc(N)c1-c1ccc(O)cc1 [Compound 75, N-[5-[6-amino-4-ethyl-5-(4-hydroxyphenyl)-3-pyridyl]-2-pyridyl]acetamide], CCc1c(-c2ccc(OC)nc2)cnc(N)c1-c1ccc(O)cc1 [Compound 68, 4-[2-amino-4-ethyl-5-(6-methoxy-3-pyridyl)-3-pyridyl]phenol] is higher in IC50: 3.6 µM for the first, > 63.3 µM for the second. The first is the more potent here.

Going from CCc1c(-c2ccc3cn[nH]c3c2)cnc(N)c1-c1ccc(O)cc1 [Compound 84, 4-[2-amino-4-ethyl-5-(1H-indazol-6-yl)-3-pyridyl]phenol] to CCc1c(-c2cccc(N)c2)cnc(N)c1-c1ccc(O)cc1 [Compound 90, 4-[2-amino-5-(3-aminophenyl)-4-ethyl-3-pyridyl]phenol], the IC50 rises from 7.2 µM to 19.2 µM (2.7-fold).

Going from CCc1c(-c2ccc(O)cc2)cnc(N)c1-c1ccc2[nH]nc(C)c2c1 [Compound 59, 4-[6-amino-4-ethyl-5-(3-methyl-1H-indazol-5-yl)-3-pyridyl]phenol] to CCc1c(-c2ccnc(C)c2)cnc(N)c1-c1ccc(O)cc1 [Compound 73, 4-[2-amino-4-ethyl-5-(2-methyl-4-pyridyl)-3-pyridyl]phenol], the IC50 rises from 19.3 µM to 47.3 µM (2.5-fold). The first is the more potent here.

CCc1c(-c2cccc(C(C)C)c2)cnc(N)c1-c1ccc(O)cc1 [Compound 47, 4-[2-amino-4-ethyl-5-(3-isopropylphenyl)-3-pyridyl]phenol] and CCc1c(-c2cccc(C(=O)N(C)C)c2)cnc(N)c1-c1ccc(O)cc1 [Compound 54, 3-[6-amino-4-ethyl-5-(4-hydroxyphenyl)-3-pyridyl]-N,N-dimethyl-benzamide] cannot be ordered by IC50: > 20 µM for the first, 161 µM for the second.

First: CCc1c(-c2ccc(O)cc2)cnc(N)c1-c1ccc(NS(C)(=O)=O)cc1 [Compound 30, N-[4-[2-amino-4-ethyl-5-(4-hydroxyphenyl)-3-pyridyl]phenyl]methanesulfonamide]
Second: CCc1c(-c2ccc(CNS(C)(=O)=O)cc2)cnc(N)c1-c1ccc(O)cc1 [Compound 70, N-[[4-[6-amino-4-ethyl-5-(4-hydroxyphenyl)-3-pyridyl]phenyl]methyl]methanesulfonamide]
The IC50 of the first is 1.8-fold lower: 19.6 µM for the first, 34.4 µM for the second. The first is the more potent here.

Compared with CCc1c(-c2ccc(CO)cc2)cnc(N)c1-c1ccc(O)cc1 [Compound 55, 4-[2-amino-4-ethyl-5-[4-(hydroxymethyl)phenyl]-3-pyridyl]phenol], CCc1c(-c2ccc(Cl)cc2)cnc(N)c1-c1ccc(O)cc1 [Compound 80, 4-[2-amino-5-(4-chlorophenyl)-4-ethyl-3-pyridyl]phenol] is lower in IC50: > 20 µM for the first, 17.6 µM for the second. The second is the more potent here.

CCc1c(-c2ccc(O)cc2)cnc(NCC2CC2)c1-c1ccc(O)cc1 [Compound 40, 4-[6-(cyclopropylmethylamino)-4-ethyl-5-(4-hydroxyphenyl)-3-pyridyl]phenol] and CCc1c(-c2ccc(C)cc2)cnc(N)c1-c1ccc(O)cc1 [Compound 36, 4-[2-amino-4-ethyl-5-(p-tolyl)-3-pyridyl]phenol] are within 1.5-fold of each other in IC50: 19.9 µM for the first, 18.1 µM for the second.

CCc1c(-c2cccc(C(=O)N3CCCC3)c2)cnc(N)c1-c1ccc(O)cc1 [Compound 64, [3-[6-amino-4-ethyl-5-(4-hydroxyphenyl)-3-pyridyl]phenyl]-pyrrolidin-1-yl-methanone] and CCc1c(-c2ccc(C(=O)N3CCOCC3)cc2)cnc(N)c1-c1ccc(O)cc1 [Compound 60, [4-[6-amino-4-ethyl-5-(4-hydroxyphenyl)-3-pyridyl]phenyl]-morpholino-methanone] cannot be ordered by IC50: > 63.3 µM for the first, 167 µM for the second.

CCc1c(-c2ccc(O)cc2)cnc(N)c1-c1ccc(O)c(C#N)c1 [Compound 72, 5-[2-amino-4-ethyl-5-(4-hydroxyphenyl)-3-pyridyl]-2-hydroxy-benzonitrile] and CCc1c(-c2ccc(O)c(C#N)c2)cnc(N)c1-c1ccc(O)cc1 [Compound 94, 5-[6-amino-4-ethyl-5-(4-hydroxyphenyl)-3-pyridyl]-2-hydroxy-benzonitrile] are within 1.5-fold of each other in IC50: 12.5 µM for the first, 9.6 µM for the second.

CCc1c(-c2ccncc2)cnc(N)c1-c1ccc(O)cc1 [Compound 38, 4-[2-amino-4-ethyl-5-(4-pyridyl)-3-pyridyl]phenol] and CCc1c(-c2cccnc2)cnc(N)c1-c1ccc(O)cc1 [Compound 39, 4-[2-amino-4-ethyl-5-(3-pyridyl)-3-pyridyl]phenol] are within 1.5-fold of each other in IC50: 52.4 µM for the first, 41 µM for the second.

CCc1c(-c2cccc(N3CCNCC3)c2)cnc(N)c1-c1ccc(O)cc1 [Compound 42, 4-[2-amino-4-ethyl-5-(3-piperazin-1-ylphenyl)-3-pyridyl]phenol] and CCc1c(-c2ccc(O)cc2)cnc(N)c1-c1cccc(N2CCOCC2)c1 [Compound 22, 4-[6-amino-4-ethyl-5-(3-morpholinophenyl)-3-pyridyl]phenol] cannot be ordered by IC50: 165 µM for the first, > 63.3 µM for the second.

Compared with CCc1c(-c2cccc(CN3CCOCC3)c2)cnc(N)c1-c1ccc(O)cc1 [Compound 82, 4-[2-amino-4-ethyl-5-[3-(morpholinomethyl)phenyl]-3-pyridyl]phenol], CCc1c(-c2ccc(O)cc2)cnc(N)c1-c1cccc(CN2CCOCC2)c1 [Compound 26, 4-[6-amino-4-ethyl-5-[3-(morpholinomethyl)phenyl]-3-pyridyl]phenol] is 8-fold higher in IC50: 18.2 µM for the first, 145 µM for the second. The first is the more potent here.

CCc1c(-c2cnc(OC)nc2)cnc(N)c1-c1ccc(O)cc1 [Compound 83, 4-[2-amino-4-ethyl-5-(2-methoxypyrimidin-5-yl)-3-pyridyl]phenol] and CCc1c(-c2cc(F)cc(F)c2)cnc(N)c1-c1ccc(O)cc1 [Compound 76, 4-[2-amino-5-(3,5-difluorophenyl)-4-ethyl-3-pyridyl]phenol] cannot be ordered by IC50: 136 µM for the first, > 20 µM for the second.

Compared with CCc1c(-c2ccc(C#N)c(F)c2)cnc(N)c1-c1ccc(O)cc1 [Compound 67, 4-[6-amino-4-ethyl-5-(4-hydroxyphenyl)-3-pyridyl]-2-fluoro-benzonitrile], CCc1c(-c2cccc(NC(C)=O)c2)cnc(N)c1-c1ccc2cn[nH]c2c1 [Compound 14, N-[3-[6-amino-4-ethyl-5-(1H-indazol-6-yl)-3-pyridyl]phenyl]acetamide] is 3-fold higher in IC50: 45 µM for the first, 136 µM for the second.
